Experimental data from patent publication US6613781B2, “Heterocyclylaklylindole or -azaindole compounds as 5-hydroxytryptamine-6 ligands” (Wyeth, priority 2000, dated 2003).
Structures can show the parent of a compound that is named as a salt. Where two headings read alike, the source gives them in different places.

Tests used:
[1] = biological target: T1, human cloned 5-HT6 receptors (Homo sapiens, UniProt P50406); assay: Comparative evaluation of 5-HT6 binding affinity ([3H]-LSD displacement, Hela cell membranes)
T1 construct: expressed in transfected cells; host or cells: Hela cells
Procedure: The affinity of test compounds for the serotonin 5-HT6 receptor is evaluated in the following manner. Cultured Hela cells expressing human cloned 5-HT6 receptors are harvested and centrifuged at low speed (1,000×g) for 10.0 min to remove the culture media. The harvested cells are suspended in half volume of fresh physiological phosphate buffered saline solution and recentrifuged at the same speed. This operation is repeated. The collected cells are then homogenized in ten volumes of 50 mM Tris.HCl (pH 7.4) and 0.5 mM EDTA. The homogenate is centrifuged at 40,000×g for 30.0 min and the precipitate is collected. The obtained pellet is resuspended in 10 volumes of Tris.HCl buffer and recentrifuged at the same speed. The final pellet is suspended in a small volume of Tris.HCl buffer and the tissue protein content is determined in aliquots of 10-25 μl volumes. Bovine Serum Albumin is used as the standard in the protein determination according to the method described in Lowry et al., J. Biol. Chem., 193:265 (1951). The volume of the suspended cell membranes is adjusted to give a tissue protein concentration of 1.0 mg/ml of suspension. The prepared membrane suspension (10 times concentrated) is aliquoted in 1.0 ml volumes and stored at −70° C. until used in subsequent binding experiments.
Binding experiments are performed in a 96 well microtiter plate format, in a total volume of 200 μl. […] The test compounds are added in 20.0 μl volume.
The reaction is allowed to proceed in the dark for 120 min at room temperature, at which time, the bound ligand-receptor complex is filtered off on a 96 well unifilter with a Packard Filtermate® 196 Harvester. The bound complex caught on the filter disk is allowed to air dry and the radioactivity is measured in a Packard TopCount® equipped with six photomultiplier detectors, after the addition of 40.0 μl Microscint®-20 scintillant to each shallow well. The unifilter plate is heat-sealed and counted in a PackardTopCount® with a tritium efficiency of 31.0%.
Binding in the presence of varying concentrations of test compound is expressed as a percentage of specific binding in the absence of test compound. The results are plotted as log % bound versus log concentration of test compound. […] A linear regression line of data points is plotted, from which the IC50 value is determined and the Ki value is determined based upon the following equation: […]
where L is the concentration of the radioactive ligand used and KD is the dissociation constant of the ligand for the receptor, both expressed in nM.

[2] = [3H]-LSD 3.0 nM, membranes of Hela cells expressing human cloned 5-HT6 receptors, 120 min, room temperature, read-out: 5-HT6 Binding Ki

T1 sequence (P50406 whole entry): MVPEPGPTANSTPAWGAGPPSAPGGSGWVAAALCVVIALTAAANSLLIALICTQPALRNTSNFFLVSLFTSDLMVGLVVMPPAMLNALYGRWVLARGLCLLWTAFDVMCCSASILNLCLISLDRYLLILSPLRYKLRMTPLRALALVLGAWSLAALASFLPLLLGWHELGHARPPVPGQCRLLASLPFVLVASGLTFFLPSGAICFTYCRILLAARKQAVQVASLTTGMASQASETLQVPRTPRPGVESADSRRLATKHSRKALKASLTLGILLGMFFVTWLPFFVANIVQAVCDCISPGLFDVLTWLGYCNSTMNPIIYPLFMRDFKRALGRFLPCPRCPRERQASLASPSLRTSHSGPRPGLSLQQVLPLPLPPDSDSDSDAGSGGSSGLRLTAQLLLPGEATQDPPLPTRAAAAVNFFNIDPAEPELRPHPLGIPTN

Row | Ki [1, 2] [µM] | SMILES | further results
1 | 0.162 | N#Cc1ccc(S(=O)(=O)n2cc(CC3CCNCC3)c3cc(F)ccc32)cc1 [Example 19, 4-{[5-fluoro-3-(piperidin-4-ylmethyl)-1H-indol-1-yl]sulfonyl}benzonitrile] | –
2 | 0.012 | O=S(=O)(c1ccccc1)n1cc(CC2CCNCC2)c2cc(F)ccc21 [Example 6, 5-Fluoro-1-phenylsulfonyl)-3-(4-piperidinylmethyl)-1H-indole hydrochloride] | –
3 | 0.013 | O=S(=O)(c1cccc2ccccc12)n1cc(CC2CCNCC2)c2cc(F)ccc21 [Example 10, 5-Fluoro-1-(1-naphthylsulfonyl)-3-(4-piperidinylmethyl)-1H-indole hydrochloride] | –
4 | 0.008 | COc1ccc(S(=O)(=O)n2cc(CC3CCNCC3)c3cc(F)ccc32)cc1OC [Example 18, 1-[(3,4-dimethoxyphenyl)sulfonyl]-5-fluoro-3-(piperidin-4-ylmethyl)-1H-indole] | –
5 | 0.002 | O=S(=O)(c1cccc2cccnc12)n1cc(CC2CCNCC2)c2cc(F)ccc21 [Example 20, 8-{[5-fluoro-3-(piperidin-4-ylmethyl)-1H-indol-1-yl]sulfonyl}quinoline] | –
6 | 0.001 | Nc1ccc(S(=O)(=O)n2cc(CC3CCNCC3)c3cc(F)ccc32)cc1 [Example 7, 4-{[5-Fluoro-3-(4-piperidinylmethyl)-1H-indole-1-yl]sulfonyl}aniline] | –
7 | 0.003 | Nc1ccc(S(=O)(=O)n2cc(CC3CCNCC3)c3ccc(F)cc32)cc1 [Example 28] | –

The next lines start with the compound.

Row | SMILES | Ki [1, 2] [µM] | further results
8 | CN1CCN(C2=Nc3ccccc3Oc3ccc(Cl)cc32)CC1 [Loxapine, reference compound] | 0.0414 | –
9 | O=S(=O)(c1ccccc1)n1cc(CC2CCNCC2)c2ccc(F)cc21 [Example 21, 6-flouro-1-(phenylsulfonyl)-3-(4-piperidinylmethyl)-1H-indole] | 0.013 | –
10 | O=S(=O)(c1ccccc1Cl)n1cc(CC2CCNCC2)c2ccc(F)cc21 [Example 24, 6-flouro-1-(2-chlorophenylsulfonyl)-3-(4-piperidinylmethyl)-1H-indole] | 0.013 | –
11 | O=S(=O)(c1cccc(F)c1)n1cc(CC2CCNCC2)c2ccc(F)cc21 [Example 27, 6-flouro-1-(3-fluorophenylsulfonyl)-3-(4-piperidinylmethyl)-1H-indole] | 0.029 | –
12 | COc1ccc(S(=O)(=O)n2cc(CC3CCNCC3)c3cc(F)ccc32)cc1OC (as salt: hydrochloride) [Example 18, 1-[(3,4-dimethoxyphenyl)sulfonyl]-5-fluoro-3-(piperidin-4-ylmethyl)-1H-indole] | – | melting point: 246 °C
13 | O=S(=O)(c1ccc(Cl)s1)n1cc(CC2CCNCC2)c2ccc(F)cc21 [Example 25, 6-flouro-1-(5-chlorothien-2-ylsulfonyl)-3-(4-piperidinylmethyl)-1H-indole] | 0.018 | –
14 | N#Cc1ccc(S(=O)(=O)n2cc(CC3CCNCC3)c3cc(F)ccc32)cc1 (as salt: hydrochloride) [Example 19, 4-{[5-fluoro-3-(piperidin-4-ylmethyl)-1H-indol-1-yl]sulfonyl}benzonitrile] | – | melting point: 249 °C
15 | O=S(=O)(c1cccc2cccnc12)n1cc(CC2CCNCC2)c2cc(F)ccc21 (as salt: hydrochloride) [Example 20, 8-{[5-fluoro-3-(piperidin-4-ylmethyl)-1H-indol-1-yl]sulfonyl}quinoline] | – | melting point: 245 °C
16 | O=S(=O)(c1cccc2ccccc12)n1cc(CC2CCNCC2)c2ccc(F)cc21 [Example 22, 6-flouro-1-(1-naphthylsulfonyl)-3-(4-piperidinylmethyl)-1H-indole] | 0.024 | –
17 | Nc1ccc(S(=O)(=O)n2cc(CC3CCNCC3)c3ccc(F)cc32)cc1 (as salt: hydrochloride) [Example 28] | – | melting point: 198 to 200 °C
18 | CC(C)C[C@H]1C(=O)N2CCC[C@H]2[C@]2(O)O[C@](NC(=O)[C@@H]3C=C4c5cccc6[nH]c(Br)c(c56)C[C@H]4N(C)C3)(C(C)C)C(=O)N12 [Bromocriptine, reference compound] | – | Ki [1]: 0.023 µM
19 | COc1ccc(S(=O)(=O)n2cc(CC3CCNCC3)c3ccc(F)cc32)cc1OC [Example 23, 6-flouro-1-(3,4-dimethoxyphenylsulfonyl)-3-(4-piperidinylmethyl)-1H-indole] | 0.019 | –
20 | O=S(=O)(c1ccccc1F)n1cc(CC2CCNCC2)c2ccc(F)cc21 [Example 26, 6-flouro-1-(2-fluorophenylsulfonyl)-3-(4-piperidinylmethyl)-1H-indole] | 0.017 | –
